In patent US11987647B2, “Cyclic cell-penetrating peptides with one or more hydrophobic residues” (Ohio State Innovation Foundation, priority 2018, dated 2024):
[ ]: non-standard residue; d: D form. The star is where a group is joined. FtBu = phenylalanine with a tert-butanoyl substituent (F^tBu); 2Nal = N[C@@H](Cc1ccc2ccccc2c1)C(=O)O; Decanoyl = CCCCCCCCCC(=O)*; Octanoyl = CCCCCCCC(=O)*; Dap = NC[C@H](N)C(=O)O

Experiments:
HeLa cells [1] = assay: Cytosolic entry efficiency of NF-labelled peptides by flow cytometry; assay type: cell-based; settings: for Cellular Entry Efficiency In 10% FBS: 2 h, relative to CPP12 (100%); for CPP activity compared with CPP1-4 (in words): variant of CPP1-4
Procedure: All of the peptides were labeled with naphthofluorescein (NF) at the Gln side chain through a long, flexible linker, miniPEG-Lys. HeLa cells were treated with 5 μM peptide for 2 h in the presence of 10% FBS and the cytosolic entry of the peptides was quantitated by flow cytometry analysis.
To determine cellular uptake efficiency of the CPPs disclosed herein, HeLa cells were cultured in 12-well plates (1.5×10^5 cells per well) overnight. The cells were incubated for 2 h with […] naphthofluorescein (NF)-labelled peptide in cellular media. At the end of incubation, the cells were washed with DPBS twice, detached from the plate with 0.25% trypsin, diluted into clear DMEM, pelleted at 250 g for 5 min, washed twice with DPBS, resuspended in DPBS, and analyzed on a BD FACS LSR II flow cytometer. For NF-labelled peptides, a 633-nm laser was used for excitation and the fluorescence emission was analyzed in the APC channel. Absolute cellular uptake efficiency was determined by comparing the concentration (via fluorescence intensity) of the CPP in the cytosol to the concentration in the extracellular medium. Relative cellular uptake efficiency was determined by comparing the cytosolic concentration of the CPP to that cytosolic concentration of the control CPP cyclo(FΦRRRRQ).

HeLa cells [2] = assay: as above; assay type: cell-based; settings: for Cellular Entry Efficiency In 1% FBS: relative to CPP12 (100%)
[3] = Table 4, 5 μM NF-labelled peptide, 10% FBS
[4] = Table 7, 5 μM NF-labelled peptide, 10% FBS

Substance | Cellular Entry Efficiency In 10% FBS (HeLa cells [1]; [3]) [%] | Cellular Entry Efficiency In 10% FBS (HeLa cells [1]; [4]) [%] | CPP activity compared with CPP1-4 (in words) (HeLa cells [1]) | Cellular Entry Efficiency In 1% FBS (HeLa cells [2]; Table 4, NF-labelled peptide) [%] | Cellular Entry Efficiency In 1% FBS (HeLa cells [2]; Table 7, NF-labelled peptide) [%] | CPP activity compared with CPP1-15 (in words) (HeLa cells [1]; stereochemical variation of CPP1-15) | activity, fold higher than CPP1 (HeLa cells [1]; 10% FBS, versus CPP1) [fold] | sensitivity to serum concentration (HeLa cells [1]; 10% vs 1% FBS, compared with CPP9 or CPP12) | cytosolic entry efficiency (HeLa cells [2]; reduced serum concentration (1% FBS), CPP12 most active) [%]
cyclo(Dap^3,3-diphenyRRRRQ) (cyclo([Dap](3,3‑diphenylpropanoyl)RRRRQ)) [CPP1-6] | 3.9 ± 0.4 | 3.9 ± 0.4 |  |  |  |  |  |  | 
cyclo(F^tBuRRRRQ) (cyclo([FtBu]RRRRQ)) [CPP1-1] | 6.7 ± 0.4 | 6.7 ± 0.4 |  |  |  |  |  |  | 
cyclo(Dap^DecaRRRAQ) (cyclo([Dap](Decanoyl)RRRAQ); SMILES CCCCCCCCCC(=O)NC[C@@H]1NC(=O)[C@H](CCC(N)=O)NC(=O)[C@H](C)NC(=O)[C@H](CCCNC(=N)N)NC(=O)[C@H](CCCNC(=N)N)NC(=O)[C@H](CCCNC(=N)N)NC1=O) [CPP1-13] | 32 ± 2 | 32 ± 2 | reduced the CPP activity | 33 | 33 |  |  |  | 
cyclo(Dap^DecarRrRQ) [CPP1-11] | 20 ± 6 | 20 ± 6 | substantially decreased the CPP activity | 29 | 29 |  |  |  | 
cyclo(FΦRRRRQ) (cyclo(F[2Nal]RRRRQ); SMILES N=C(N)NCCC[C@@H]1NC(=O)[C@H](CCCNC(=N)N)NC(=O)[C@H](CCCNC(=N)N)NC(=O)[C@H](Cc2ccc3ccccc3c2)NC(=O)[C@H](Cc2ccccc2)NC(=O)[C@H](CCC(N)=O)NC(=O)[C@H](CCCNC(=N)N)NC1=O) [CPP1, the first cyclic CPP discovered, reference compound] | 21 | 21 |  |  |  |  |  |  | 
cyclo(Lys^DecarRrRQ) [CPP1-19] | 12 | 12 |  |  |  | reduced the CPP activity |  |  | 
cyclo(Dap^DecaRRRRQ) (cyclo([Dap](Decanoyl)RRRRQ); SMILES CCCCCCCCCC(=O)NC[C@@H]1NC(=O)[C@H](CCC(N)=O)NC(=O)[C@H](CCCNC(=N)N)NC(=O)[C@H](CCCNC(=N)N)NC(=O)[C@H](CCCNC(=N)N)NC(=O)[C@H](CCCNC(=N)N)NC1=O) [CPP1-4] | 57 ± 19 | 57 ± 19 |  |  |  |  | 2.5 | lower sensitivity to serum concentration | 44
cyclo(Dap^1-PyrenRRRRQ) (cyclo([Dap](1‑pyrenoyl)RRRRQ)) [CPP1-5] | 10 ± 20 | 10 ± 20 |  |  |  |  |  |  | 
cyclo(Asp^DecyRrRrQ) [CPP1-22] | 11 | 11 |  |  |  |  |  |  | 
cyclo(Dap^DecaARRRQ) (cyclo([Dap](Decanoyl)ARRRQ); SMILES CCCCCCCCCC(=O)NC[C@@H]1NC(=O)[C@H](CCC(N)=O)NC(=O)[C@H](CCCNC(=N)N)NC(=O)[C@H](CCCNC(=N)N)NC(=O)[C@H](CCCNC(=N)N)NC(=O)[C@H](C)NC1=O) [CPP1-12] | 26 ± 4 | 26 ± 4 | reduced the CPP activity | 34 | 34 |  |  |  | 
cyclo(Dap^DecaRRRQ) (cyclo([Dap](Decanoyl)RRRQ); SMILES CCCCCCCCCC(=O)NC[C@@H]1NC(=O)[C@H](CCC(N)=O)NC(=O)[C@H](CCCNC(=N)N)NC(=O)[C@H](CCCNC(=N)N)NC(=O)[C@H](CCCNC(=N)N)NC1=O) [CPP1-16] | 3.0 ± 0.1 | 3.0 ± 0.1 | greatly decreased the CPP activity | 25 | 25 |  |  |  | 
cyclo(Dap^OctanRRRRQ) (cyclo([Dap](Octanoyl)RRRRQ); SMILES CCCCCCCC(=O)NC[C@@H]1NC(=O)[C@H](CCC(N)=O)NC(=O)[C@H](CCCNC(=N)N)NC(=O)[C@H](CCCNC(=N)N)NC(=O)[C@H](CCCNC(=N)N)NC(=O)[C@H](CCCNC(=N)N)NC1=O) [CPP1-3] | 5.7 ± 0.6 | 5.7 ± 0.6 |  |  |  |  |  |  | 
